Read-outs that look alike come from different tables or passages of the source.
Assays:
SMARCA2-NanoLuc = target: T1, SMARCA2-NanoLuc (Homo sapiens, UniProt P51531); assay: NanoBRET target engagement assay, live and permeabilized HEK293 cells (SMARCA2); type: cell-based; details: SMARCA2 NanoBRET TE
T1 construct: expressed in transfected cells; host or cells: HEK293
Experimental: We employed a NanoBRET-based target engagement (TE) assay as reported earlier^7 for evaluating PROTACs relative permeability. In summary, live and permeabilized HEK293 cells with SMARCA2 or BRD4-NanoLuc were used for measuring IC50 values of different PROTACs. The relative shift in the IC50 was evaluated as relative binding affinity (RBA) by taking the ratio of IC50 values of live and permeabilized cells. Availability index (AI), which is a surrogate for permeability can be calculated by taking a ratio of RBA of compounds to permeable benchmark molecules. We used SMARCA bromodomain binding ligand^8 for SMARCA2 PROTACs and JQ1^9, 10 for BRD4 PROTACs as benchmark molecules.
Relative Binding Affinity (RBA) = Live-cell TE IC50 / Permeabilized-cell TE IC50
Availability Index (AI) = RBAtest cmpd / RBApermeable benchmark
Availability Index (AI) greater than one is indicative of reduced permeability compared to the benchmark.

[1] = target: T2, VBC / SMARCA2^BD ternary complex (Homo sapiens, UniProt P40337+P51531); assay: SPR ternary complex binding, VBC surface with preformed PROTAC/SMARCA2 bromodomain complex; details: for Kd: SPR, VHL, PROTAC, error SEM, N = 3, read-out: KLPT (ternary complex binding affinity)
T2 construct: VHL (54-213), ElonginB (17-112) ElonginC (1-104); SMARCA2^BD 1373–1511 ∆1400–1417; His6 (N, cleaved yes); made in house
T2 sequence (P40337 54-213): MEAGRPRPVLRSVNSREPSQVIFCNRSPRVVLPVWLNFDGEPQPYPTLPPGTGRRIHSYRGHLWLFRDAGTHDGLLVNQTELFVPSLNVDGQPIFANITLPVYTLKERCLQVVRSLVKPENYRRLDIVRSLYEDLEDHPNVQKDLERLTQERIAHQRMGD
T2 sequence (P51531 other isoform, or with tags, fused parts or gaps): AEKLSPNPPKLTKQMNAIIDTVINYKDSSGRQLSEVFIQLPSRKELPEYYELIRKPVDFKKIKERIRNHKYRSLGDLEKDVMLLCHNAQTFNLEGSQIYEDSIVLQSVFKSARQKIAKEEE
T2 sequence (Q15370 1-104, further chain): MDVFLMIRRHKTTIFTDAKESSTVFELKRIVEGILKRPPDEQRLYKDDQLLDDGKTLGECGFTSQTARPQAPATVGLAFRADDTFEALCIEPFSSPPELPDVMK
T2 sequence (Q15369 17-112, further chain): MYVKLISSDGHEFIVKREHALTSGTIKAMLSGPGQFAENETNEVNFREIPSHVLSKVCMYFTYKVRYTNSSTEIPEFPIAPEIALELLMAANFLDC
Experimental: SPR experiments were performed on a Biacore 8 K or T200 instrument (Cytiva). […] The running buffer during immobilization was PBS with 0.005% P20. Either high-density (3000-4000 RU) or low-density (300-400 RU) VBC-functionalized surfaces were created, followed by equilibration in the running buffer for 3 h.
PROTACs (10 mM in 100% DMSO) were initially prepared at 200 nM in a running buffer (20 mM Tris pH 8.0, 250 mM NaCl, 1 mM TCEP, 0.01% P20, 0.2 mg/ml BSA) with a concentration of 2% DMSO. This solution was mixed at 1:1 ratio with a solution of 5 μM of the SMARCA2 or BRD4 bromodomain protein in the running buffer. This complex was then serially diluted in the running buffer containing 2.5 μM SMARCA2 or BRD4 and 2% DMSO (5-point five-fold serial dilution). For ternary experiments, solutions were injected sequentially in single-cycle kinetic format without regeneration (contact time 60 s, flow rate 80 μL/min, dissociation time 300 s) using a stabilization period of 60 s and syringe wash (50% DMSO) between injections onto a low-density VBC-functionalized surface.
(§1) Raw sensorgrams were processed by performing double reference subtraction, solvent correction, and analysis was done using Biacore Insight Evaluation Software. Kinetic analysis was performed by fitting data to a 1:1 Langmuir interaction model and a steady-state affinity model was used to evaluate equilibrium binding affinity.

SMARCA2 = target: T3, SMARCA2 (Homo sapiens, UniProt P51531); assay: SMARCA2 degradation time course in A375 cells (MSD); type: cell-based; details: single concentration at or near maximal activity
T3 construct: endogenous in cells; host or cells: A375
T3 sequence (P51531 whole entry): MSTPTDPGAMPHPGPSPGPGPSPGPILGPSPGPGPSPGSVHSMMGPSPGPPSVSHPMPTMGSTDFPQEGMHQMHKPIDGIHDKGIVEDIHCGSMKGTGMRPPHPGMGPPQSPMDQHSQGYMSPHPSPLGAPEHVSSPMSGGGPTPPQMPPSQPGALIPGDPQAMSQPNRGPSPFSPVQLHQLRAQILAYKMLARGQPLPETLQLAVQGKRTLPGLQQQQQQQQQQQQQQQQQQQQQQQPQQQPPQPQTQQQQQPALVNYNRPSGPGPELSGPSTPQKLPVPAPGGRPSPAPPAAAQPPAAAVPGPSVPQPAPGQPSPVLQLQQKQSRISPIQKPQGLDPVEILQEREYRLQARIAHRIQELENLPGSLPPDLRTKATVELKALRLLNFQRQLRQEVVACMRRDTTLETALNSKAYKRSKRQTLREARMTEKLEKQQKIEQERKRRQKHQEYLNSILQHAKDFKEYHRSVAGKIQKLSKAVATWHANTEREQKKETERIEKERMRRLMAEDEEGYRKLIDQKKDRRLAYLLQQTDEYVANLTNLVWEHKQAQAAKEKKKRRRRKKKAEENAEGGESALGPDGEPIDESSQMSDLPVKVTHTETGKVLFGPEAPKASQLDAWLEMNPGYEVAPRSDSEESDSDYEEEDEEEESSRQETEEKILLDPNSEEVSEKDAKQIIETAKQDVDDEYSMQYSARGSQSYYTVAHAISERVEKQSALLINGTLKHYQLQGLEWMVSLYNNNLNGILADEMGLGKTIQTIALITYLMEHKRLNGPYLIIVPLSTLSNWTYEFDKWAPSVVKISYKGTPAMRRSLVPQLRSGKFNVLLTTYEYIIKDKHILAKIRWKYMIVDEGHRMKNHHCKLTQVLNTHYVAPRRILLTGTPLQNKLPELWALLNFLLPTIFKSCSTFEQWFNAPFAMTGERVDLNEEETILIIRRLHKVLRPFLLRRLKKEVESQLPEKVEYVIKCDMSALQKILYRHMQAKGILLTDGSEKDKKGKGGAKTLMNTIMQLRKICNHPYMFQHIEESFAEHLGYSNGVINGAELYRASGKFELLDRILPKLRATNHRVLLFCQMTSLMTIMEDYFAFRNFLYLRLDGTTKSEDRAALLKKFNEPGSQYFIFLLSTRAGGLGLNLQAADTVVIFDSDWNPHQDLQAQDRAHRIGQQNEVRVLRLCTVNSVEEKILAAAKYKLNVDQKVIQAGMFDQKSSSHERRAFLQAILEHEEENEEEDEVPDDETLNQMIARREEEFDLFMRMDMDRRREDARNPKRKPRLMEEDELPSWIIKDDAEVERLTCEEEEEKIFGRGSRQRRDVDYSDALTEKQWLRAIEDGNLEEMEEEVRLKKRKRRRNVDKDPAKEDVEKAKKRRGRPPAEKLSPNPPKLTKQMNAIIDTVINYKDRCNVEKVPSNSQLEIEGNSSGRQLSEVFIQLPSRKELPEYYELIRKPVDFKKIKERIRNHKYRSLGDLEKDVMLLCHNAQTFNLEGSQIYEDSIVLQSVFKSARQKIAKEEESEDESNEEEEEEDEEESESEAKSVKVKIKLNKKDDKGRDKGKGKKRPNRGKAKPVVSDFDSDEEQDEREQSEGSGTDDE
Source text: This characteristic has been described as cooperativity (α > 1) and likely results from favorable PPIs present in the ternary complex. […] To measure the rate of protein degradation, we treated A375 cells with a single concentration of each PROTAC and measured the decrease in target abundance over time as shown in Figs. 4b and5b.
MSD electrochemiluminescence signals were subtracted by the average background signal from wells with lysis buffer alone. Normalized MSD values (POC) for individual compound treated wells were acquired by dividing background-subtracted assay signal by signal from vehicle control wells (cells + 0.1% DMSO) and multiplying by 100. This POC data was graphed using a nonlinear regression curve fit xy analysis and a log(inhibitor) vs response —variable slope (four parameter) model for dose response curves (Graphpad Prism 9, San Diego, CA, USA). To calculate area under the curve, all points on the curve were connected and vertical lines were drawn from each point down to y = 0, generating a series of trapezoids. The area of each trapezoid was determined using the equation A = (1/2)(h)(b1 + b2), where h = 1 (distance between points), b1 = POC of the first point and b2 = POC of the second point. The sum of all trapezoids provides an approximate area under the curve (AUC). For half-life (t1/2) determination in time course studies, a one-phase decay model was used for curve fitting and the time at which the curve crossed 50 POC was determined through interpolation (Graphpad Prism 9, San Diego, CA, USA). Additionally initial rate of degradation was determined by multiplying 100 with rate constant (τ = 0.693/t1/2).

VHL/EloB/EloC (VBC) = target: T4, VHL/EloB/EloC (VBC) (Homo sapiens, UniProt P40337); assay: SPR binary binding of PROTAC to VBC-functionalized surface; details: SPR; error SEM, N = 3; read-out: KLP (binary binding affinity between E3 ligase VHL and PROTAC)
T4 construct: VHL (54-213), ElonginB (17-112) ElonginC (1-104); made in house
T4 sequence (Q15369 17-112): as the sequence (Q15369 17-112, further chain) above
T4 sequence (Q15370 1-104, further chain): as the sequence (Q15370 1-104, further chain) above
T4 sequence (P40337 54-213): as the sequence (P40337 54-213) above

SMARCA2^BD = target: T5, SMARCA2^BD (Homo sapiens, UniProt P51531); assay: SPR binary binding of PROTAC to SMARCA2-functionalized surface; details: 1:1 Langmuir binding model, SEM N=3 or SD N=2, read-out: KTP (binary affinity PROTAC / SMARCA2)
T5 construct: SMARCA2^BD 1373–1511 ∆1400–1417; made in house
T5 sequence (P51531 1373-1493 isoform P51531-2): as the sequence (P51531 other isoform, or with tags, fused parts or gaps) above
Experimental: PROTACs (10 mM stocks in 100% DMSO) were diluted to 400 nM in a running buffer (20 mM Tris pH 7.5, 200 mM NaCl, 0.02% P20). This stock solution was then serially diluted in the running buffer containing final 2% DMSO. Solutions were injected in multi-cycle kinetic format without regeneration (contact time 60 s, flow rate 80 μL/min, dissociation time 120 s) using a stabilization period of 30 s and syringe wash (50% DMSO) between injections onto a high-density VBC-functionalized surface. For SMARCA2 analysis, biotinylated proteins were introduced on a Series S streptavidin (SA) sensor chip at high-density (3000-4000 RU).
as §1

[2] = live HEK293 cells, read-out: Live-Cell TE IC50
[3] = permeabilized HEK293 cells, read-out: Permeabilized-Cell TE IC50

T1 sequence (P51531 whole entry): as the sequence (P51531 whole entry) above

| Compound | IC50 (SMARCA2-NanoLuc; [2]) [nM] | IC50 (SMARCA2-NanoLuc; [3]) [nM] | α (cooperativity, KLP/KLPT) [1] | Kd [1] [nM] | Initial Degradation Rate (SMARCA2) [%/min] | Kd (VHL/EloB/EloC (VBC)) [nM] | Kd (SMARCA2^BD) [nM] |
| --- | --- | --- | --- | --- | --- | --- | --- |
| Cc1ncsc1-c1ccc([C@H](C)NC(=O)[C@@H]2C[C@@H](O)CN2C(=O)[C@@H](NC(=O)CCc2ccnc(N3CCN(c4cc(-c5ccccc5O)nnc4N)CC3)c2)C(C)(C)C)cc1 [Compound 8, (2S,4R)-1-((S)-2-(3-(2-(4-(3-Amino-6-(2-hydroxyphenyl)pyridazin-4-yl)piperazin-1-yl)pyridin-4-yl)propanamido)-3,3-dimethylbutanoyl)-4-hydroxy-N-((S)-1-(4-(4-methylthiazol-5-yl)phenyl)ethyl)pyrrolidine-2-carboxamide] | 600 | 50 | 0.26 | 27 ± 3 | 1.34 | 7 ± 2 | 49 ± 12 |
| Cc1ncsc1-c1ccc([C@H](C)NC(=O)[C@@H]2C[C@@H](O)CN2C(=O)[C@@H](NC(=O)c2ccnc(N3CCN(c4cnnc(-c5ccccc5O)c4)CC3)c2)C(C)(C)C)cc1 [Compound 10, N-((S)-1-((2S,4R)-4-Hydroxy-2-(((S)-1-(4-(4-methylthiazol-5-yl)phenyl)ethyl)carbamoyl)pyrrolidin-1-yl)-3,3-dimethyl-1-oxobutan-2-yl)-2-(4-(6-(2-hydroxyphenyl)pyridazin-4-yl)piperazin-1-yl)isonicotinamide] | 2370 | 5040 | 0.24 | 250 ± 30 | 0.56 | 60 ± 5 | 745 ± 134 |

From PMC10344917, “Affinity and cooperativity modulate ternary complex formation to drive targeted protein degradation” (Nature Communications, 2023)
